Where a name gives a salt, the structure may show the parent alone.
SMILES	melting point
COC(=O)C1(NC(=O)c2ccc(-n3nc(C)cc3C)c(-c3ccc(Cl)c(OCCCN(C)C)c3)n2)CCCCC1 (as salt: hydrochloride) [Compound 18, methyl 1-({[6-{4-chloro-3-[3-(dimethylamino)propoxy]phenyl}-5-(3,5-dimethyl-1H-pyrazol-1-yl)pyridin-2-yl]carbonyl}amino)cyclohexanecarboxylate]	158 °C
COC(=O)C1(NC(=O)c2cnc(-c3ccc(C)cc3C)c(-c3ccc(Cl)c(OCCCN(C)C)c3)n2)CCCCC1 (as salt: hydrochloride) [Compound 20, methyl 1-({[6-{4-chloro-3-[3-(dimethylamino)propoxy]phenyl}-5-(2,4-dimethylphenyl)pyrazin-2-yl]carbonyl}amino)cyclohexanecarboxylate]	118 °C
COC(=O)C1(NC(=O)c2ccc(-c3ccccc3Cl)c(-c3ccc(Cl)c(OCCCN(C)C)c3)n2)C2CC3CC(C2)CC1C3 (stereo not drawn) (as salt: hydrochloride) [Compound 26, methyl 2-({[6-{4-chloro-3-[3-(dimethylamino)propoxy]phenyl}-5-(2-chlorophenyl)pyridin-2-yl]carbonyl}amino)adamantane-2-carboxylate]	135 °C

Further lines, results first:

melting point	SMILES
112 °C	CCOc1ccc(Cl)c(-c2ncc(C(=O)N[C@@H](CC(=O)OC)C(C)(C)C)nc2-c2ccc(Cl)c(OCCCN(C)C)c2)c1 (as salt: hydrochloride) [Compound 24, methyl(3S)-3-({[6-{4-chloro-3-[3-(dimethylamino)propoxy]phenyl}-5-(2-chloro-5-ethoxyphenyl)pyrazin-2-yl]carbonyl}amino)-4,4-dimethylpentanoate]
90 °C	CCOC(=O)C[C@H](NC(=O)c1ccc(-c2ccccc2C)c(-c2ccc(Cl)c(OCCCN(C)C)c2)n1)C(C)(C)C (as salt: hydrochloride) [Compound 29, ethyl(3S)-3-({[6-{4-chloro-3-[3-(dimethylamino)propoxy]phenyl}-5-(2-methylphenyl)pyridin-2-yl]carbonyl}amino)-4,4-dimethylpentanoate]
152 °C	CNC(=O)C[C@H](NC(=O)c1ccc(-c2ccccc2C)c(-c2ccc(Cl)c(OCCCN(C)C)c2)n1)C(C)(C)C (as salt: hydrochloride) [Compound 33, 6-{4-chloro-3-[3-(dimethylamino)propoxy]phenyl}-N-{(1S)-2,2-dimethyl-1-[2-(methylamino)-2-oxoethyl]propyl}-5-(2-methylphenyl)pyridine-2-carboxamide]
